Experimental data reported in ChEMBL document CHEMBL1201862, “PubChem BioAssay data set” (2004).
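Growth conditions: 96-well plates. Treatment: test compound, 48 hours, 5 concentrations. Analysis: linear interpolation between bracketing concentrations; unreached endpoints set to highest concentration. Here, GI50 denotes the concentration required for 50% inhibition of growth.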 Activity calls are given as the source filed them. Cut-off read from the data, not from the text of the source: active = GI50 up to about 1.1 µM and inactive = higher.

How the values were obtained:
Experiment in all cases: growth of human tumour cells (NCI), 48 h
[1] = tested on: SW-620
[2] = tested on: HCT-116
[3] = tested on: A498
[4] = tested on: Hs-578T
[5] = tested on: IGROV-1
[6] = tested on: U-251
[7] = tested on: SF-539
[8] = tested on: MDA-MB-435
[9] = tested on: MOLT-4
[10] = tested on: UACC-62
[11] = tested on: M14
[12] = tested on: COLO 205
[13] = tested on: K562
[14] = tested on: SK-OV-3
[15] = tested on: SR
[16] = tested on: SNB-19
[17] = tested on: ACHN
[18] = tested on: A549
[19] = tested on: NCI-H226
[20] = tested on: HT-29

Measured: GI50

N#C/C(C(=S)NCc1ccccc1)=C(/N)N1CCCC1
inactive: [1] > 100 µM | [2] > 100 µM | [3] 35.3 µM | [4] > 100 µM | [5] > 100 µM | [6] > 100 µM | [7] > 100 µM | [8] > 100 µM | [9] > 100 µM | [10] > 100 µM | [11] > 100 µM | [12] > 100 µM | [13] > 100 µM | [14] > 100 µM | [15] > 100 µM | [16] > 100 µM | [17] > 100 µM | [18] > 100 µM | [19] > 100 µM | [20] > 100 µM

COC(=O)CC(C)(N[S+]([O-])c1ccc(C)cc1)c1ccccc1 (stereo not given)
inactive: [1] > 100 µM | [2] > 100 µM | [3] > 100 µM | [4] > 100 µM | [5] > 100 µM | [6] > 100 µM | [7] > 100 µM | [8] > 100 µM | [9] > 100 µM | [10] > 100 µM | [12] > 100 µM | [13] > 100 µM | [14] > 100 µM | [15] > 100 µM | [16] > 100 µM | [17] > 100 µM | [18] > 100 µM | [19] > 100 µM | [20] > 100 µM

Cn1cc(S(=O)(=O)NC(=O)Nc2ccc(Cl)cc2)c(=O)c2ccc(F)cc21
inactive: [1] > 100 µM | [2] > 100 µM | [3] > 100 µM | [4] > 100 µM | [5] > 100 µM | [6] > 100 µM | [7] > 100 µM | [8] > 100 µM | [9] > 100 µM | [10] 3.01 µM | [12] > 100 µM | [13] > 100 µM | [14] > 100 µM | [15] > 100 µM | [16] > 100 µM | [17] > 100 µM | [18] > 100 µM | [19] > 100 µM | [20] > 100 µM

CCOc1ccccc1NC(=O)C(=O)C(/C(=N/N)C(=O)OC)c1nc2ccc([N+](=O)[O-])cc2nc1O (stereo not given)
inactive: [1] > 100 µM | [2] > 100 µM | [3] > 100 µM | [4] > 100 µM | [5] 28.5 µM | [6] > 100 µM | [7] > 100 µM | [8] > 100 µM | [9] 59.8 µM | [10] > 100 µM | [11] > 100 µM | [13] > 100 µM | [14] > 100 µM | [15] > 100 µM | [18] > 100 µM | [19] > 100 µM | [20] > 100 µM

O=C1c2ccccc2C(=O)C2NC(CCCCCSSCCCCCC3=NC4C(=O)c5ccccc5C(=O)C4N3)=NC12 (stereo not given)
inactive: [1] 90.8 µM | [2] 14.8 µM | [3] 23.7 µM | [4] 25.7 µM | [5] 12.9 µM | [6] 17.6 µM | [7] 24.3 µM | [8] > 100 µM | [9] 3.8 µM | [11] 4.57 µM | [13] > 100 µM | [14] 50.8 µM | [15] 1.48 µM | [17] 10.4 µM | [19] > 100 µM | [20] > 100 µM

O=C1O[C@H]2[C@H](O)[C@@H](OC(=O)c3cc(O)c(O)c4c3[C@@H]3C1=CC(=O)C(O)(O)C3(O)O4)[C@H](OC(=O)c1cc(O)c(O)c(O)c1)O[C@@H]2CO (stereo not given in full) [FUROSIN]
inactive: [1] > 100 µM | [2] 74.8 µM | [3] > 100 µM | [4] > 100 µM | [5] > 100 µM | [6] > 100 µM | [8] 39.5 µM | [9] > 100 µM | [10] 75.7 µM | [11] 62.2 µM | [12] 99.3 µM | [13] 38.1 µM | [14] 86.5 µM | [15] 32.1 µM | [16] > 100 µM | [17] 41.6 µM | [18] 79.1 µM | [19] > 100 µM | [20] 49.1 µM
